Results as given in patent US20260102492A1, “Inhibition of Natural Killer Cell Cytoxocity” (University of Cincinnati, priority 2022, published 2026).
“Also recorded” adds a separate entry of the source.

Columns and labels:
[1] = test system: pSTAT1; test: Western blot of HNSCC NK cell lysates, pSTAT1; format: cell-based, Human; conditions: metformin or 50 ng CXCL1, 24 hrs, FIG. 3A/3B
Method: NK92, Cal27, UMSCC47 and HN5 cells were cultured with drug as described. Cells were collected in RIPA (0.05% sodium deoxycholate, […], 0.1% SDS, 1% NP-40) and protein content was analyzed by Pierce BCA kit (Thermo 23225). 50 ug of protein was diluted in 1×loading buffer (SDS, bromophenol blue, 47% glycerol, Tris 0.5M pH 6.8, 0.2 mM DTT-G) and heated to 90° C. for 3 minutes. Prepared lysate was loaded into gradient gels (Biorad 4561093) and run at 85V for 1.5 hour in Biorad casing with a Biorad powerpack in 1×running buffer (Tris, Glycine, SDS). Gels were transferred on nitrocellulose and run at 100V on bench for 1 hour in 1×transfer buffer (Tris, Glycine). […] Images were analyzed in Image Studio Lite V 5.2.
To determine what those pathways could be, pathways known to be affected by both metformin and CXCL1 were investigated. pSTAT3 and mTOR are known to be increased by activation of the CXCR2 receptor, and mTOR activation can inhibit pSTAT1 expression. […] Therefore, HNSCC patient-derived NK cells treated with metformin, CXCL1, or CXCR2i (navaxarin) were collected and analyzed by western blot analysis. Head and neck squamous cell carcinoma (HNSCC) natural killer (NK) cells were treated with metformin, 50 ng CXCL1, or 10 uM CXCR2i (navarixin) for 24 hrs and collected for lysates analyzed by western blot analysis (FIG. 3A).

[2] = Peripheral blood cell populations and serum cytokines of HNSCC patients after metformin treatment; format: in vivo, Human
Method: An Unpaired 2-tailed T Test With Welch's correction was used for analysis between flow cytometry in controls versus HNSCC patients. A 2-tailed Student's t test was used to compare differences between HNSCC patients before and after treatment in flow cytometry and cytokine experiments. Differences in immune cell populations between three groups were compared by one-way ANOVA with specific post-hoc contrasts. NKCA data were compared using a paired t test. Statistical analysis was performed in GraphPad Prism (V10). Differences between groups were considered statistically significant when P<0.05.

[3] = test system: HNSCC patient-derived NK cells; test: NK cell perforin ELISA after co-culture with Cal27 cells; format: cell-based, Human
Method: For NK cell perforin assays, NK cells were treated with drug for 24 hrs, washed, and co-cultured with Cal27 cells for 4 hours. Supernatant was then collected, snap frozen in liquid nitrogen and stored at −80 until thawed for single use. For patient samples, undiluted plasma was added directly to ELISA. ELISA kit for perforin was obtained from ABCAM. ELISA was performed according to the manufacturer's protocol. Protocols included overnight coating of capture antibody diluted by lot number recommendation, 1 hr block with 400 uL 2% BSA in PBS, 2 hr sample incubation at room temperature of 100 uL sample (no dilution of sample was performed in these experiments), 2 hr […] diluted by lot number recommendation, 20 min Streptavidin incubation with 100 uL of 1:40 dilution of stock, and 15 min incubation with 100 uL included TMB ELISA reagent. 50 uL stop solution of in house 2N […] was added to stop reaction before reading at […] wavelength on plate reader. All plates included standard curve prepared per lot number recommendation with range of 35-2000 pg.
HNSCC patient-derived NK cells were treated with exogenous CXCL1 and an inhibitor of the CXCL1 receptor, CXCR2, or metformin. Patient-derived NK cells were exposed to Cal27 cells for 4 hours and supernatant was collected for perforin analysis by ELISA. Specifically, HNSCC NK cells derived from PBMCs were treated with 50 ng CXCL1, 12 mM metformin, or 10 nM CXCR2i (navarixin) and subjected to perforin against Cal27 target cells. Cells were analyzed by flow and analyzed by one way ANOVA. n=8.
Specifically, HNSCC NK cells were treated with vehicle, metformin, or 10 uM AMPK inhibitor (Dosomorphin) for 24 hrs, washed, and co-cultured with Cal27 cells for 4 hrs. Supernatant was collected for ELISA and analyzed by one way ANOVA. n=5.
HNSCC patient-derived NK cells were treated with vehicle, metformin, 10 uM mTOR inhibitor (Everolimus), or 10 uM mTOR activator (MHY1485) for 24 hrs, washed, and co-cultured with Cal27 cells for 4 hrs. Supernatant was collected for ELISA and analyzed by one way ANOVA. n=5.
As pSTAT1 can modulate perforin production, HNSCC patient-derived NK cells were treated with vehicle, […], or 10 uM of pSTAT1i inhibitor Fludarabine for 24 hrs, washed, and co-cultured with Cal27 cells for 4 hrs.
HNSCC NK cells were treated with vehicle, 12 mM metformin, 50 ng CXCL1, or 10 uM pSTAT3 inhibitor BP-1012 and co-cultured with Cal27 cells for 4 hrs. Supernatant was collected for ELISA and analyzed by one way ANOVA. n=5.

[4] = test system: CXCL1; test: Patient plasma CXCL1 ELISA, trial NCT04414540 (pembrolizumab and metformin); format: in vivo, Human
[5] = test system: HNSCC patient-derived NK cells; test: CXCL1 ELISA of NK cell culture supernatant; format: cell-based, Human
Method: Healthy donor and HNSCC NK cells were isolated from PBMCs and were treated for 24 hrs with vehicle or metformin. Supernatant was collected and analyzed by ELISA (analyzed by one way ANOVA. n=10).
HNSCC NK cells were isolated from PBMCs and treated with vehicle, 12 mM metformin, 50 ng CXCL1, 10 uM everolimus, or 10 uM BP-1-102 for 24 hr. The cells were washed and plated in fresh media. After 24 hrs, supernatant was collected for ELISA.

[6] = test system: pSTAT3; test: Western blot of HNSCC NK cell lysates, pSTAT3; format: cell-based, Human; conditions: metformin or 50 ng CXCL1, 24 hrs; western blot, FIG. 3A/3B
Method: NK92, Cal27, UMSCC47 and HN5 cells were cultured with drug as described. Cells were collected in RIPA (0.05% sodium deoxycholate, […], 0.1% SDS, 1% NP-40) and protein content was analyzed by Pierce BCA kit (Thermo 23225). 50 ug of protein was diluted in 1×loading buffer (SDS, bromophenol blue, 47% glycerol, Tris 0.5M pH 6.8, 0.2 mM DTT-G) and heated to 90° C. for 3 minutes. Prepared lysate was loaded into gradient gels (Biorad 4561093) and run at 85V for 1.5 hour in Biorad casing with a Biorad powerpack in 1×running buffer (Tris, Glycine, SDS). Gels were transferred on nitrocellulose and run at 100V on bench for 1 hour in 1×transfer buffer (Tris, Glycine). Membranes were blocked in 5% BSA in TBS for 1 hr, washed, and incubated in primary diluted in 2% BSA in TBS overnight. Membranes were washed and incubated in Licor secondary (Licor 926-32211 and 925-68070) in 5% BSA in TBS for 1 hr. Membranes were washed and imaged on a Licor Odyssey Clx. Images were analyzed in Image Studio Lite V 5.2.
To determine what those pathways could be, pathways known to be affected by both metformin and CXCL1 were investigated. pSTAT3 and mTOR are known to be increased by activation of the CXCR2 receptor, and mTOR activation can inhibit pSTAT1 expression. Metformin is also hypothesized to inhibit pSTAT3 and mTOR in NK cells. Therefore, HNSCC patient-derived NK cells treated with metformin, CXCL1, or CXCR2i (navaxarin) were collected and analyzed by western blot analysis. Head and neck squamous cell carcinoma (HNSCC) natural killer (NK) cells were treated with metformin, 50 ng CXCL1, or 10 uM CXCR2i (navarixin) for 24 hrs and collected for lysates analyzed by western blot analysis (FIG. 3A).

[7] = test system: HNC NK cells; test: RNA-seq of metformin treated HNSCC patient-derived NK cells; format: cell-based, Human; conditions: 12 mM metformin 24 hrs
Method: HNC NK cells were isolated as above and were treated with vehicle or 12 mM metformin for 24 hrs. Cells were washed, suspended in CyroStor, and frozen. Samples were sent to Genewiz/Azenta for standard RNA-seq profiling. Sequence reads were aligned to the current reference […] genome (GRCh38) using the STAR aligner (43,44) and the reads aligned to each known gene were counted based on the latest GENCODE definitions of gene features.

[8] = patient serum cytokine profile, after metformin
[9] = patients, after metformin treatment

Structure (SMILES): CN(C)C(=N)N=C(N)N [metformin, Metformin]
- pSTAT1 [1]: increases pSTAT1; also recorded: increase in pSTAT1
- expression of NKG2D ([2]; circulating NK and NKT cells, after metformin treatment): increasing expression of NKG2D back to levels seen in healthy controls
- IL-2 [2, 8]: increasing
- TNF-α [2, 8]: increasing
- TEM cells [2, 9]: larger population
- circulating NK and NKT cell populations [2, 9]: partially restored
- perforin ([3]; 12 mM Metformin in pSTAT1-inhibited (10 uM Fludarabine) NK cells, Cal27 co-culture 4 hrs, FIG. 6): rescued to baseline
- perforin production ([3]; 12 mM metformin or 50 ng CXCL1, Cal27 target cells 4 hours, n=8, FIG. 2): increased perforin
- circulating CXCL1 ([4]; post-metformin and pembrolizumab combination (week 4), n=5): decrease was not retained
- circulating CXCL1 ([4]; post-metformin only vs pre-treatment, n=5, FIG. 9): decreased
- circulating CXCL1 ([4]; post-metformin only vs pre-treatment, n=5, FIG. 9, listed as Metformin): reduced circulating CXCL1
- CXCL1 supernatant levels ([5]; HNSCC patient-derived NK cells treated 24 hrs, n=10, FIG. 1): inhibits CXCL1 release; also recorded: significantly reduced CXCL1 supernatant levels
- CXCL1 secretion ([5]; single agent (12 mM metformin, 10 uM everolimus or 10 uM BP-1-102) 24 hr, fresh media 24 hrs, n=5, FIG. 8): reduces CXCL1
- pSTAT3 [6]: decreases pSTAT3; also recorded: reduction of pSTAT3
- CXCL1 expression (RNA-seq) [7]: significantly downregulated CXCL1
